The target in experiment [1] is PPT acetyl transferase (Streptomyces hygroscopicus, UniProt P16426). Type of experiment: biochemical, S. hygroscopicus ATCC 21 705. The following applies: S. hygroscopicus derivates; S. lividans carrying pBG20 or pBG16.
The subject of experiment [2] is Phytophtora infestans. The experiment is classed as in vivo. The following applies: sfr potato plants sprayed at 8 l/ha once symptoms visible, read two weeks later.
For experiment [3], the system named is E. coli W3110. The experiment can be described thus: Growth of E. coli W3110 on M9 medium containing Bialaphos. Type of experiment: cell-based. The following applies: for resistance of pBG93/W3110 to Bialaphos: M9 medium.
Experiment [4] relates to S. lividans. The experiment is classed as cell-based.
The test system of experiment [5] is glutamine synthetase (GS). The following applies: cited from earlier work.

Chain of PPT acetyl transferase (P16426 whole entry): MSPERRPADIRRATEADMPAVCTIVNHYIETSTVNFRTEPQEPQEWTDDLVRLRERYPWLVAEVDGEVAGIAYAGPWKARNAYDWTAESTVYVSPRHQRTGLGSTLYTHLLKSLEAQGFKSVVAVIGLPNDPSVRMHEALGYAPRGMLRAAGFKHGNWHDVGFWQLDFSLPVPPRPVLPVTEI

Turning to `CC(NC(=O)C(C)NC(=O)C(N)CCP(C)(=O)O)C(=O)O` (stereo not shown) [Bialaphos], the “acetylation by the PPT acetyl transferase activity” value in experiment [1] is “does not acetylate”. Moreover, the “growth of the fungus on treated plants” value in experiment [2] is listed as “stopped”. For the same molecule, in experiment [3] (M9 medium containing 5 μg/ml Bialaphos), the “growth of W3110 host devoid of pBG93” value is given as “did not grow”. The “resistance of pBG93/W3110 to Bialaphos” value in experiment [3] (in the presence of IPTG (0.5 mM)) is 50 μg/ml; in experiment [3] (without IPTG), 5 μg/ml. Moreover, the “growth of transformants containing pBG20” value in experiment [4] (S. lividans with pBG20, medium containing 500 μg/ml Bialaphos) was “not noticeably inhibited”. For the same molecule, the “Bialaphos concentration at which S. lividans growth is normally inhibited” value in experiment [4] (untransformed S. lividans, minimal medium) was 1 µg/mL.

For the molecule `CC(=O)NC(CCP(C)(=O)O)C(=O)O` (stereo not shown) [N-acetyl PPT], the “inhibition of glutamine synthetase (GS)” value in experiment [5] is “not an inhibitor”.

As for `CP(=O)(O)CCC(N)C(=O)O` (stereo not shown) [PPT, phosphinothricin], the “acetylation by the PPT acetyl transferase activity” value in experiment [1] is “could acetylate”. The “inhibition of glutamine synthetase (GS)” value in experiment [5] is “inhibits”.

The values above are taken from patent USRE44962E1, “Genetically engineered plant cells and plants exhibiting resistance to glutamine synthetase inhibitors, DNA fragments and recombinants for use in the production of said cells and plants” (Bayer Cropscience N.V., priority 1986, dated 2014).
